Results on 3 compounds are retold here after patent publication US20190127313A1, “ANTIMICROBIAL AGENTS” (THE UNIVERSITY OF WARWICK, priority 2016, published 2019).

Data set [1] relates to multidrug-resistant A. baumannii strains. The data set is described as follows: MIC against multidrug-resistant A. baumannii strains. It counts as cell-based. To be noted: Acinetobacter baumannii. Here is the method: Minimal inhibitory concentrations (MICs) were determined by the CLSI broth microdilution method. Briefly, representative members of the ESKAPE panel of pathogens were grown overnight in Mueller-Hinton (MH) broth at 30° C. Each organism was diluted to a final concentration of 5×10^5 […] using McFarland turbidity standards. Concentrations of vibroxin followed twofold dilutions starting at 32 μg/mL. Assays were incubated for 18h at 30° C.

Data set [2] is described as follows: Alkaline hydrolysis of the ester linkage, LC-MS analysis. It counts as physicochemical. To be noted: 0.4M KOH, 37° C., 4h. Here is the method:
The relative stereochemistry of the dihydroxycyclohexane carboxylic acid (DHCCA) moiety in vibroxin was determined by hydrolyzing the ester linkage in vibroxin under basic conditions. […] The same was not true for the corresponding portion of enacyloxin, which had degraded. […] The alkaline hydrolysis reaction was carried out by combining 15 μl of a 5 mg/ml solution of vibroxin/enacyloxin in methanol with 185 μl 0.4M KOH. Following incubation at 37° C. for 4h, the mixture was acidified (<pH 4) with 35% HCl. The samples were analysed by UHPLC-ESI-QTOF-MS analysis using a Dionex UltiMate 3000 RS UHPLC connected to a Zorbax Eclipse Plus column (C18, 100×2.1 mm, 1.8 μm) coupled to a Bruker MaXis IMPACT mass spectrometer. The mass spectrometer was operated in positive ion mode with a scan range of 50-3000 m/z.

Data set [3] has as its system Acinetobacter baumannii AYE. As to the kind of experiment: MIC/MBC by CLSI broth microdilution, ESKAPE panel. Type of data set: cell-based. Here is the method:
(§1) Minimal inhibitory concentrations (MICs) were determined by the CLSI broth microdilution method. Briefly, representative members of the […] panel of pathogens were grown overnight in Mueller-Hinton (MH) broth at 30° C. Each organism was diluted to a final concentration of 5×10^5 […] using McFarland turbidity standards. Concentrations of vibroxin followed twofold dilutions starting at 32 μg/mL. Assays were incubated for 18h at 30° C. […] Cell suspensions without visible growth were then plated out on LB agar plates to determine the minimal bactericidal concentration (MBC). The MBC was set as the lowest concentration required to kill 99.9% of the originally inoculated 5.10^5 CFU/ml. All MIC and MBC determinations were performed in triplicate.
(In broth dilution the organism is exposed to a series of concentrations in liquid medium.)

Data set [4] has as its system Acinetobacter baumannii AB5075. The data set is described as follows: MIC/MBC by CLSI broth microdilution, ESKAPE panel. Type of data set: cell-based. On the procedure: as §1
Data set [5] relates to Acinetobacter baumannii DSM25645. As to the kind of experiment: MIC/MBC by CLSI broth microdilution, ESKAPE panel. It counts as cell-based. Here is the method: as §1
In data set [6] the test system is Acinetobacter baumannii S1. The data set is described as follows: MIC/MBC by CLSI broth microdilution, ESKAPE panel. Type of data set: cell-based. Here is the method: as §1
Data set [7] concerns Acinetobacter baumannii ATCC17978. As to the kind of experiment: MIC/MBC by CLSI broth microdilution, ESKAPE panel. Type of data set: cell-based. On the procedure: as §1
Data set [8] has as its system A2780 human ovarian cancer cells. As to the kind of experiment: Cytotoxicity, SRB assay, A2780 cells. Type of data set: cell-based. To be noted: 24 h exposure, 72 h recovery. Here is the method: The cells were obtained from the European Collection of Animal Cell Culture and grown as single monolayers in Roswell Park Memorial Institute medium (RPMI-1640) supplemented with 10% (v/v) fetal calf serum, 1% (v/v) 2 mM L-glutamine and 1% (v/v) penicillin (10 k units/mL)/streptomycin (10 mg/mL). Cells were kept at 310 K in a humidified atmosphere containing 5% CO2 and maintenance passages were done at ca. 80% confluency.
For cytotoxicity measurements, 96-well plates were used to seed 5000 A2780 cells per well. These were left to pre-incubate in drug-free media at 310 K for 48 h before adding various concentrations of vibroxin. A stock solution of vibroxin was prepared in 5% v/v DMSO and 95% v/v cell culture medium. Then, serial dilutions with culture medium were carried out to achieve working concentrations. […] The percentage of viable cells resulting from exposure to vibroxin was determined by measuring the absorbance due to soluble sulforohodamine relative to an untreated control. The absorbance measurements were carried out using a BioRad iMark microplate reader with a 470 nm filter. Mean percentage cell viability values+/−1 standard deviation were calculated from duplicates of triplicates in two independent sets of experiments.
Background: In SRB staining, fixed cells bind dye roughly in proportion to their protein.

Data set [9] deals with Enterobacter cloacae DSM16690. As to the kind of experiment: MIC by CLSI broth microdilution, ESKAPE panel. Type of data set: cell-based. To be noted: MH broth, 18h at 30° C. On the procedure: as §1
The test system of data set [10] is Pseudomonas aeruginosa DSM29239. As to the kind of experiment: MIC by CLSI broth microdilution, ESKAPE panel. It counts as cell-based. To be noted: MH broth, 18h at 30° C. Here is the method: as §1
The subject of data set [11] is Staphylococcus aureus DSM21979. As to the kind of experiment: MIC by CLSI broth microdilution, ESKAPE panel. It counts as cell-based. To be noted: MH broth, 18h at 30° C. Here is the method: as §1
Data set [12] concerns Enterococcus faecium DSM25390. The data set is described as follows: MIC by CLSI broth microdilution, ESKAPE panel. Type of data set: cell-based. To be noted: MH broth, 18h at 30° C. Here is the method: as §1
Data set [13] concerns Klebsiella pneumoniae DSM26371. As to the kind of experiment: MIC by CLSI broth microdilution, ESKAPE panel. Type of data set: cell-based. To be noted: MH broth, 18h at 30° C. On the procedure: as §1
For data set [14], the system named is A. baumannii strains. To be noted: see Furukawa et al. 2007; cited from earlier work.
[15] abbreviates: lowest concentration required to kill 99.9%.

Values after ≈ are worked out from the molar mass of the structure shown.

By MIC is commonly meant the lowest concentration found to suppress growth. Compound `CC/C=C/[C@@H](OC(N)=O)[C@@H](Cl)[C@H](O)CC(=O)[C@@H](O)[C@H](O)C(C)/C(Cl)=C/C=C/C=C(C)/C=C/C=C/C(=O)O[C@@H]1CC(C(=O)O)CC[C@@H]1O` (stereo partly shown) [enacyloxin, enacyloxin IIa, reference compound] yielded an MIC in data set [1] of 2 µg/mL (≈ 2.85 µM). Moreover, the “polyketide chain resulting from alkaline hydrolysis of the ester linkage, detection by LC-MS” value in [2] was “had degraded”.

By MBC is commonly meant the lowest tested concentration that kills the bacteria rather than only halting them. A higher MBC goes with weaker bactericidal potency. In general, IC50 refers to the concentration needed to halve the response being measured. A low value points to greater potency. `CC(/C=C/C=C/C(=O)OC1CC(C(=O)O)CCC1O)=C\C=C\C=C(/Cl)C(C)C(O)C(O)C(O)CC(O)/C=C/C=C/C(C)C` (stereo not shown) [vibroxin]: the MIC in [3] (MH broth, 18h at 30° C.) is 2 µg/mL (≈ 3.21 µM); in [4] (MH broth, 18h at 30° C.), 2 µg/mL (≈ 3.21 µM); in data set [5] (MH broth, 18h at 30° C.), 2 µg/mL (≈ 3.21 µM); in data set [6] (MH broth, 18h at 30° C.) it was 1 µg/mL (≈ 1.6 µM); in [7] (MH broth, 18h at 30° C.), 2 µg/mL (≈ 3.21 µM); in data set [9], > 32 µg/mL. Further, the MIC is > 32 µg/mL in data set [10]; > 32 µg/mL in data set [11]; > 32 µg/mL in [12]; > 32 µg/mL in data set [13]; 2 µg/mL (≈ 3.21 µM) in data set [1]. Also, the MBC in data set [3] (setting [15]) came out at 4 µg/mL (≈ 6.42 µM); in data set [4] (setting [15]), 4 µg/mL (≈ 6.42 µM); in data set [5] (setting [15]), 8 µg/mL (≈ 12.8 µM); in data set [6] (setting [15]), 8 µg/mL (≈ 12.8 µM); in [7] (setting [15]) it was 8 µg/mL (≈ 12.8 µM). This compound came in with a half-maximal inhibitory concentration (IC50) in data set [8] of 50 to 100 µM. Besides, the “polyketide chain resulting from alkaline hydrolysis of the ester linkage, detection by LC-MS” value in [2] was “could also be detected by LC-MS”. Also, the “chemical stability (comparison)” value in [2] (alkaline hydrolysis) is listed as “greater chemical stability than enacyloxin”.

With C-18 deschloro-enacyloxin, in data set [14], the MIC is > 32 µg/mL.
